Measured values from ChEMBL document CHEMBL4715842, “Sulfonamide/sulfamate switch with a series of piperazinylureido derivatives: Synthesis, kinetic and in silico evaluation as carbonic anhydrase isoforms I, II, IV, and IX inhibitors” (Eur J Med Chem, 2020).

Tests used:
Carbonic anhydrase 9 = Carbonic anhydrase 9 (Homo sapiens, UniProt Q16790); test: Inhibition of recombinant human carbonic anhydrase 9 incubated for 15 mins prior to testing measured for 10 to 100 secs by phenol red-based stopped-flow CO2 hydration assay
Carbonic anhydrase 4 = Carbonic anhydrase 4 (Homo sapiens, UniProt P22748); test: Inhibition of recombinant human carbonic anhydrase 4 incubated for 15 mins prior to testing measured for 10 to 100 secs by phenol red-based stopped-flow CO2 hydration assay
Chain of Carbonic anhydrase 4 (P22748 whole entry): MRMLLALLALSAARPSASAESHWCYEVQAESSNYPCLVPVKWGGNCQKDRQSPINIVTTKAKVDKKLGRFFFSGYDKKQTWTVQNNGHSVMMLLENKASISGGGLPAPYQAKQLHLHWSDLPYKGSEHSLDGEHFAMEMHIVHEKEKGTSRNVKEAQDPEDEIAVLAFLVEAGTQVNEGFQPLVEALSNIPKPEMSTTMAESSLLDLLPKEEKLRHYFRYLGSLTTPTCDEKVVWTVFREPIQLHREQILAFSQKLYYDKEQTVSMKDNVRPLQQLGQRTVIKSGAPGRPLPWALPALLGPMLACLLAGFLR

Carbonic anhydrase 2 = Carbonic anhydrase 2 (Homo sapiens, UniProt P00918); test: Inhibition of recombinant human carbonic anhydrase 2 incubated for 15 mins prior to testing measured for 10 to 100 secs by phenol red-based stopped-flow CO2 hydration assay
Carbonic anhydrase 1 = Carbonic anhydrase 1 (Homo sapiens, UniProt P00915); test: Inhibition of recombinant human carbonic anhydrase 1 incubated for 15 mins prior to testing measured for 10 to 100 secs by phenol red-based stopped-flow CO2 hydration assay
Chain of Carbonic anhydrase 1 (P00915 whole entry): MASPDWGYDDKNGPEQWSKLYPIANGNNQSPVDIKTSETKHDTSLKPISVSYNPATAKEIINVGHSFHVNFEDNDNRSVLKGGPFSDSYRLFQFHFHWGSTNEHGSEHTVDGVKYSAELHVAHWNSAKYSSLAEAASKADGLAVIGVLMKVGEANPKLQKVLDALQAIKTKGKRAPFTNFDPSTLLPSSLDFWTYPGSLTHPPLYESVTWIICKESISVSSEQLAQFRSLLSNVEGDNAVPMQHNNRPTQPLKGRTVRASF

Homo sapiens = species: Homo sapiens; test: Selectivity ratio of Ki for inhibition of recombinant human carbonic anhydrase 2 to Ki for Ki for inhibition of recombinant human carbonic anhydrase 9

Structure (SMILES) | Ki (Carbonic anhydrase 9) [nM] | Ki (Carbonic anhydrase 4) [nM] | Ki (Carbonic anhydrase 2) [nM] | Ki (Carbonic anhydrase 1) [nM] | Ratio Ki (Homo sapiens)
CCCCCCCCN1CCN(C(=O)Nc2ccc(OS(N)(=O)=O)cc2)CC1 | 31400 | 4800 | 15.9 | 752 | –
Cc1cccc(-c2ccnc(N3CCN(C(=O)Nc4ccc(OS(N)(=O)=O)cc4)CC3)n2)c1 | 93300 | 1320 | 207 | 4070 | –
CCCCCCCCCCN1CCN(C(=O)Nc2ccc(OS(N)(=O)=O)cc2)CC1 | 32200 | 4190 | 21 | 680 | –
NS(=O)(=O)Oc1ccc(NC(=O)N2CCN(c3ccc(Cl)c(Cl)c3)CC2)cc1 | – | 1640 | 45.4 | 919 | –
COc1cc(-c2ccnc(N3CCN(C(=O)Nc4ccc(OS(N)(=O)=O)cc4)CC3)n2)cc(OC)c1OC | 24200 | 280 | 6.8 | 5280 | –
NS(=O)(=O)Oc1ccc(NC(=O)N2CCN(c3nccc(-c4cccc(C(F)(F)F)c4)n3)CC2)cc1 | 27100 | 458 | 58.7 | 3470 | –
NS(=O)(=O)Oc1ccc(NC(=O)N2CCN(c3nccc(-c4cccc(Br)c4)n3)CC2)cc1 | 30500 | 831 | 124 | 7770 | –
Cc1cccc(N2CCN(C(=O)Nc3ccc(OS(N)(=O)=O)cc3)CC2)c1C | – | 1090 | – | – | –
NS(=O)(=O)Oc1ccc(NC(=O)N2CCN(Cc3cc4ccccc4o3)CC2)cc1 | 32700 | – | 36.2 | 760 | –
COc1ccc(-c2ccnc(N3CCN(C(=O)Nc4ccc(OS(N)(=O)=O)cc4)CC3)n2)cc1 | 31800 | 384 | 29.1 | 3930 | –

Continued, values first:

Ki (Carbonic anhydrase 9) [nM] | Ki (Carbonic anhydrase 4) [nM] | Ki (Carbonic anhydrase 2) [nM] | Ki (Carbonic anhydrase 1) [nM] | Ratio Ki (Homo sapiens) | Structure (SMILES)
29700 | 759 | 56.9 | 692 | – | Cc1ccccc1N1CCN(C(=O)Nc2ccc(OS(N)(=O)=O)cc2)CC1
– | 2590 | – | – | – | NS(=O)(=O)Oc1ccc(NC(=O)N2CCN(c3ccc(Cl)cc3)CC2)cc1
– | – | – | – | 7 | NS(=O)(=O)Oc1ccc(NC(=O)N2CCN(c3ccccc3)CC2)cc1
– | – | – | – | 16 | Cc1cccc(N2CCN(C(=O)Nc3ccc(OS(N)(=O)=O)cc3)CC2)c1
– | 994 | – | – | – | COc1cccc(N2CCN(C(=O)Nc3ccc(OS(N)(=O)=O)cc3)CC2)c1
– | 1630 | – | – | – | COc1ccc(N2CCN(C(=O)Nc3ccc(OS(N)(=O)=O)cc3)CC2)cc1
156000 | 4100 | 706 | 2370 | – | NS(=O)(=O)Oc1ccc(NC(=O)N2CCN(c3nccc(-c4ccccc4)n3)CC2)cc1
